The test system of the first experiment is PTTS. The experiment in a line: Effects of metal ions and reagents on PTTS activity. The experiment is classed as biochemical, Picrophilus torridus. The note with it: 1 mM metal ion or reagent, standard assay conditions. How it is done: (§1) The activity of PTTS was assayed by measuring the amount of trehalose produced from maltose. The standard reaction was performed by adding 1.5 μL purified enzyme into 50 μL reaction solution containing 50 mM sodium phosphate (pH 6.0) and 150 mM maltose and incubating in a 45° C. water bath for 25 min. The assay time was under the linear range of enzyme reaction. The reaction was terminated by heating the mixture in boiling water for 15 min. One unit of enzyme activity was defined as the amount of enzyme that catalyzes the formation of 1 μmol of trehalose per min. Kinetic analysis was performed under conditions of pH 6.0 and 45° C. for 5 min in 50 mM sodium phosphate buffer containing substrate (maltose, trehalose, or maltose plus a constant 10 mM of glucose) at various concentrations. The resulting data were analyzed offline with Origin 6.0 software (Microcal, Northampton, Mass.). All experiments were carried out in duplicate or triplicate.
Effects of Metal Ions and Reagents on PTTS Activity. The effects of metal ions and reagents were determined by examining enzyme activity in the presence of 1 mM and 10 mM metal ions or reagents under standard assay conditions (FIG. 8).
`[Cu+2]` [Cu^2+]: the “inhibition of enzyme activity” value was “moderately”. Consider `NC(CO)(CO)CO` [Tris], for which the “inhibition of enzyme activity” value is reported as “moderately”. Take `[Pb+2]` [Pb^2+]: the “inhibition of enzyme activity” value is given as “moderately”.

With `CCCCCCCCCCCCOS(=O)(=O)[O-].[Na+]` [SDS], the “inhibition of enzyme activity” value is recorded as “inhibited strongly”. As to `[Hg+2]` [Hg^2+], the “inhibition of enzyme activity” value is “inhibited strongly”.

Consider `[Cd+2]` [Cd^2+], for which the “inhibition of enzyme activity” value is given as “moderately”. On the same count and under the same terms, in the case of `[Ag+]` [Ag^+] it was “inhibited strongly”. Turning to `[Al+3]` [Al^3+], the “inhibition of enzyme activity” value is “inhibited strongly”.

The subject of a further experiment is recombinant PTTS. Briefly: Substrate specificity of recombinant PTTS. The experiment is classed as biochemical, Picrophilus torridus. The note with it: standard assay conditions. As for the experimental part: as §1
The amount of trehalose, glucose, and maltose after each enzymatic reaction was measured using a high performance liquid chromatography (HPLC) (SFD 2100) system equipped with an RI detector (Schambeck S F D, RI 2000) at a flow rate of 0.9 mL/min. A carbohydrate analysis column (HYPERSIL-100 Amino, Thermo Hypersil-Keystone) equilibrated with 75% acetonitrile, 24% Milli-Q water, and 1% formic acid was used. The retention times of glucose, maltose, and trehalose were 8.0, 11.2, and 12.5 min, respectively.
Substrate Specificity of Recombinant PTTS. […] It also acted on sucrose and catalyzed the formation of glucose, fructose, and trehalulose [α-D-glucopyranosyl-(1,1)-D-fructofuranose], however, the activity is quite low. In addition, it converted the α,β-1,1-trehalose to maltose, though only about 7% just as with the α,α-1,1-trehalose.
Consider `OC[C@H]1O[C@H](O[C@H]2[C@H](O)[C@@H](O)[C@H](O)O[C@@H]2CO)[C@H](O)[C@@H](O)[C@@H]1O` [maltose], for which the “activity of recombinant PTTS with the substance as substrate” value (“activity of recombinant PTTS” below) is listed as “converted them to each other”. Consider `OC[C@H]1O[C@@H](O[C@H]2O[C@H](CO)[C@@H](O)[C@H](O)[C@H]2O)[C@H](O)[C@@H](O)[C@@H]1O` [α,β-1,1-trehalose], for which the “conversion to maltose relative to α,α-1,1-trehalose” value is listed as “about 7%”.

For the molecule `O=C(CO)[C@@H](O)[C@H](O)[C@H](O)CO` [fructose], the “activity of recombinant PTTS” value was “No detectable activities”. Same read-out and setting: next, `OC[C@H]1O[C@@](CO)(O[C@H]2O[C@H](CO)[C@@H](O)[C@H](O)[C@H]2O)[C@@H](O)[C@@H]1O` [sucrose]: “quite low”; maltotriose: “No detectable activities”; `OC[C@H]1O[C@H](O[C@H]2O[C@H](CO)[C@@H](O)[C@H](O)[C@H]2O)[C@H](O)[C@@H](O)[C@@H]1O` [trehalose, α-D-glucopyranosyl α-D-glucopyranoside]: “converted them to each other”. Still for that read-out and setting: next, `O=C[C@H](O)[C@@H](O)[C@@H](O)[C@H](O)CO` [galactose]: “No detectable activities”; `OC[C@H]1O[C@@H](O[C@@H]2O[C@H](CO)[C@@H](O)[C@H](O)[C@H]2O)[C@H](O)[C@@H](O)[C@@H]1O` [β,β-1,1-trehalose]: “No detectable activities”; `OC[C@@H](O)[C@@H](O)[C@H](O)[C@@H](O)CO` [sorbitol]: “No detectable activities”. Regarding `OC[C@H]1O[C@H](OC[C@H]2OC(O)(CO)[C@@H](O)[C@@H]2O)[C@H](O)[C@@H](O)[C@@H]1O` (stereo partly drawn) [isomaltulose], the “activity of recombinant PTTS” value was “No detectable activities”.

Regarding `OC[C@H]1O[C@H](O[C@H]2[C@H](O)[C@@H](O)[C@@H](O[C@H]3[C@H](O)[C@@H](O)[C@@H](O[C@H]4[C@H](O)[C@@H](O)C(O)O[C@@H]4CO)O[C@@H]3CO)O[C@@H]2CO)[C@H](O)[C@@H](O)[C@@H]1O` (stereo partly drawn) [maltotetraose], the “activity of recombinant PTTS” value was “No detectable activities”.

In the case of `OC[C@H]1O[C@@H](O[C@H]2[C@H](O)[C@@H](O)C(O)O[C@@H]2CO)[C@H](O)[C@@H](O)[C@H]1O` (stereo partly drawn) [lactose], the “activity of recombinant PTTS” value was “No detectable activities”. Regarding `OC[C@H]1O[C@H](O[C@H]2[C@H](O)[C@@H](O)[C@@H](O[C@H]3[C@H](O)[C@@H](O)[C@@H](O[C@H]4[C@H](O)[C@@H](O)[C@@H](O[C@H]5[C@H](O)[C@@H](O)C(O)O[C@@H]5CO)O[C@@H]4CO)O[C@@H]3CO)O[C@@H]2CO)[C@H](O)[C@@H](O)[C@@H]1O` (stereo partly drawn) [maltopentose], the “activity of recombinant PTTS” value is on record as “No detectable activities”.

The values are drawn from patent publication US7927850B2, “Composition containing trehalose synthase and methods of use thereof” (Academia Sinica, priority 2006, dated 2011).
